Laboratory results taken from patent US10626112B2, “Heterocyclic sulfonamide derivative and medicine comprising same” (EA PHARMA CO., LTD., priority 2014, dated 2020).

Target: human TRPA1 (Homo sapiens (Human), UniProt O75762)
Assay: Measurement of TRPA1 antagonist activity (1): intracellular calcium increase
Type: cell-based
Settings: 293T cells transfected with human TRPA1 expression plasmid; allylisothiocyanate 20 μM stimulation; intracellular calcium fluorescence; read-out: hTRPA1 IC50
Description: Measurement of TRPA1 Antagonist Activity (1)
Human TRPA1 Expression Plasmid
As cDNA encoding human TRPA1 (GenBank accession No. […]), a commercially available product was purchased (manufactured by Kazusa DNA Research Institute, clone No.: pFN21AB7348, item No.: FHC07217). Using this as a template, full-length human TRPA1 gene was amplified using the primer sequences shown below, by reaction using DNA polymerase (manufactured by Stratagene, trade name: PfuUltra High-Fidelity DNA Polymerase).
A recognition site (underlined) of restriction enzyme HindIII was added to the 5′ side, and XbaI site (underlined) was added to the 3′ side, and GTT of the template sequence was changed to termination codon TAG (bold). The obtained double stranded DNA was enzyme-digested with HindIII and XbaI, and introduced into the multicloning site of expression plasmid pcDNA3.1/zeo(+) (manufactured by Invitrogen) to construct a human TRPA1 expression plasmid.
Human embryonic kidney-derived 293T cells were cultured in Dulbecco's Modified Eagle Medium containing 10% fetal bovine serum, 10 unit penicillin, and 10 μg streptomycin, plated on a petri dish having a diameter of 10 cm at 3×10^6 cells, and cultured for 24 hr in a CO2 incubator. A reduced serum medium (manufactured by Invitrogen, trade name: OPTI-MEM, 600 μL), a gene transfer reagent (manufactured by Mirus Bio, trade name: Mirus TransIT-293, 18 μL), and human TRPA1 expression plasmid (6 μg) were mixed, the total amount of the mixture was added to the cells on the petri dish to allow for gene transfer. The cells were recovered about for 8 hr later, plated on a poly-D-lysine coated 384 well black/clear bottom plate at 12,000 cells/well, and cultured overnight.
Measurement of Intracellular Calcium Increase
The 384 well plate was recovered, and the medium was removed. A calcium-bonded fluorescent indicator (manufactured by Molecular Device, trade name: Calcium4 Assay Kit, 38 μL) dissolved in assay buffer (1×HBSS, 20 mM HEPES, pH 7.2) was added, and the cells were stained in a CO2 incubator for 1 hr. The cells were taken out at room temperature, stood for not less than 15 min, a test substance (10 μL) was added by a platereader FDSS7000 (Hamamatsu Photonics K.K.) equipped with a 384ch dispenser. After 10 min, allylisothiocyanate (12 μL) was further added at a final concentration of 20 μM, and changes in the relative fluorescence intensity after addition of allylisothiocyanate were measured for 5 min.
Test Substance Preparation
The test substance was dissolved in dimethyl sulfoxide and serially diluted with an assay buffer containing 0.1% bovine serum albumin (1×HBSS, 20 mM HEPES, pH 7.2) to a 4.8-fold concentration of the evaluation concentration. Allylisothiocyanate, which is a known TRPA1 activator, was dissolved in dimethyl sulfoxide to 100 mM, and further diluted 5-fold (100 μM) of the final concentration, like the test substance.
Calculation of Antagonist Activity
Under the test substance-free conditions, the maximum variation range of the fluorescence intensity before and after allylisothiocyanate stimulation was defined to be 100% activity rate, and the variation range before and after buffer stimulation was defined as 0% activity rate. The activity rate on addition of the test substance was determined, and the numerical value obtained by subtracting the activity rate from 100 was defined to be an inhibitory rate. IC50, which is the concentration of the test substance necessary for reaching the 50% inhibitory rate, was calculated from the sigmoid approximate curve by a spreadsheet software Excel-Fit.

human TRPA1, sequence (O75762 whole entry): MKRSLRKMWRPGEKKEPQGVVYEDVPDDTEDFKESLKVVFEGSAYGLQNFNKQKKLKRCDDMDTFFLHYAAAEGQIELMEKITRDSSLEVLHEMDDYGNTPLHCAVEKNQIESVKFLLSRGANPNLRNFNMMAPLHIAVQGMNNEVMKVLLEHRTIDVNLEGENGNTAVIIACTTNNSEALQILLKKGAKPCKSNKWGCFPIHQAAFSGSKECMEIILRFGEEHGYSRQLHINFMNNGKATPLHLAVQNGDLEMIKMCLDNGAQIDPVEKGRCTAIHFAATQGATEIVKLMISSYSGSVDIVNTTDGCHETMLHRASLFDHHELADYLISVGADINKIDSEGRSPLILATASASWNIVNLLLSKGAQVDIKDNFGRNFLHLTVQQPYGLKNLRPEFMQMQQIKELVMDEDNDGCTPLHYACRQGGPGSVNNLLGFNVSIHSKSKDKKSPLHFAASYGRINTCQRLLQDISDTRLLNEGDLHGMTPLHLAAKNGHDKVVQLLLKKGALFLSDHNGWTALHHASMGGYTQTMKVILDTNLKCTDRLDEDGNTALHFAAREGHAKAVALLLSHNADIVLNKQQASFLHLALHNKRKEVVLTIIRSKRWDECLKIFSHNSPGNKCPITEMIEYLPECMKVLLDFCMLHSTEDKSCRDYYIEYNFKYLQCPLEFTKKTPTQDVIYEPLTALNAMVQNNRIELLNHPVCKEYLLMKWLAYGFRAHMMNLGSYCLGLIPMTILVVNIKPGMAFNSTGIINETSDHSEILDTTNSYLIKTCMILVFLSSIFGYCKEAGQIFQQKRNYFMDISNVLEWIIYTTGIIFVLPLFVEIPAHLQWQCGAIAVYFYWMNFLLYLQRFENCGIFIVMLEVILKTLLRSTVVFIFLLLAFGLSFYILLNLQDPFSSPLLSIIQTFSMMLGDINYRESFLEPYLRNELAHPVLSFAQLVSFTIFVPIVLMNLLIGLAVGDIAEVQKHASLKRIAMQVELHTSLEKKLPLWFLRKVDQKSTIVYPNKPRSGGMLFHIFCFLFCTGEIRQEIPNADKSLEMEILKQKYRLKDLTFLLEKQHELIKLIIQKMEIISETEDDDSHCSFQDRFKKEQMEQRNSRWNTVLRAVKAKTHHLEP

Question: With `O=C(NCc1cc(-c2ccc(C(F)(F)F)cn2)ccn1)[C@@H]1c2ccccc2CN1S(=O)(=O)c1cc2cc(F)ccc2o1` (racemic) [Example 264, (rac)-2-(5-fluorobenzofuran-2-yl)sulfonyl-N-[[4-[5-(trifluoromethyl)-2-pyridyl]-2-pyridyl]methyl]isoindoline-1-carboxamide] as the molecule, how does the IC50 read?
Answer: 12 nM

Question: `N#Cc1ccc(COc2cccc(CNC(=O)[C@@H]3CCCN3S(=O)(=O)c3cc4ccccc4o3)c2)cc1` [Example 1, (2S)-1-(benzofuran-2-ylsulfonyl)-N-[[3-[(4-cyanophenyl)methoxy]phenyl]methyl]pyrrolidine-2-carboxamide] was tested. Which IC50 did it give?
Answer: 3 nM

Question: With `N#Cc1cccc(COc2cccc(CNC(=O)[C@@H]3CCCN3S(=O)(=O)c3cc4ccccc4o3)c2)c1` [Example 2, (2S)-1-(benzofuran-2-ylsulfonyl)-N-[[3-[(3-cyanophenyl)methoxy]phenyl]methyl]pyrrolidine-2-carboxamide] as the molecule, how does the IC50 read?
Answer: 7.9 nM

Question: `O=C(NCc1cccc(OCc2cccnc2)c1)[C@@H]1CCCN1S(=O)(=O)c1cc2ccccc2o1` [Example 3, (2S)-1-(benzofuran-2-ylsulfonyl)-N-[[3-(3-pyridylmethoxy)phenyl]methyl]pyrrolidine-2-carboxamide] was tested. Which IC50 did it give?
Answer: 72 nM

Question: With `O=C(NCc1cccc(OCc2ccco2)c1)[C@@H]1CCCN1S(=O)(=O)c1cc2ccccc2o1` [Example 4, (2S)-1-(benzofuran-2-ylsulfonyl)-N-[[3-(2-furylmethoxy)phenyl]methyl]pyrrolidine-2-carboxamide] as the molecule, how does the IC50 read?
Answer: 23 nM

Question: How did the IC50 turn out when `O=C(NCc1cccc(OCc2cccs2)c1)[C@@H]1CCCN1S(=O)(=O)c1cc2ccccc2o1` [Example 5, (2S)-1-(benzofuran-2-ylsulfonyl)-N-[[3-(2-thienylmethoxy)phenyl]methyl]pyrrolidine-2-carboxamide] was run?
Answer: 12 nM

Question: How did the IC50 turn out when `O=C(NCc1cccc(OCc2ccsc2)c1)[C@@H]1CCCN1S(=O)(=O)c1cc2ccccc2o1` [Example 6, (2S)-1-(benzofuran-2-ylsulfonyl)-N-[[3-(3-thienylmethoxy)phenyl]methyl]pyrrolidine-2-carboxamide] was run?
Answer: 7.5 nM

Question: How did the IC50 turn out when `O=C(NCc1cccc(OCc2ccnc(C(F)(F)F)c2)c1)[C@@H]1CCCN1S(=O)(=O)c1cc2ccccc2o1` [Example 7] was run?
Answer: 5.4 nM

Question: For `O=C(NCc1cccc(OCc2ccc(C(F)(F)F)nc2)c1)[C@@H]1CCCN1S(=O)(=O)c1cc2ccccc2o1` [Example 8, (2S)-1-(benzofuran-2-ylsulfonyl)-N-[[3-[[6-(trifluoromethyl)-3-pyridyl]methoxy]phenyl]-methyl]pyrrolidine-2-carboxamide], which IC50 is on record?
Answer: 6.2 nM

Question: How did the IC50 turn out when `O=C(NCc1cccc(OCc2cncc(C(F)(F)F)c2)c1)[C@@H]1CCCN1S(=O)(=O)c1cc2ccccc2o1` [Example 9, (2S)-1-(benzofuran-2-ylsulfonyl)-N-[[3-[[5-(trifluoromethyl)-3-pyridyl]methoxy]phenyl]-methyl]pyrrolidine-2-carboxamide] was run?
Answer: 7.6 nM

Question: With `O=C(NCc1cccc(OCc2cncc(Cl)c2)c1)[C@@H]1CCCN1S(=O)(=O)c1cc2ccccc2o1` [Example 10, (2S)-1-(benzofuran-2-ylsulfonyl)-N-[[3-[(5-chloro-3-pyridyl)methoxy]-phenyl]methyl]-pyrrolidine-2-carboxamide] as the molecule, how does the IC50 read?
Answer: 10 nM

Question: For `N#Cc1ccc(COc2cccc(CNC(=O)[C@@H]3CCCN3S(=O)(=O)c3cc4cc(F)ccc4o3)c2)cc1` [Example 11, (2S)-N-[[3-[(4-cyanophenyl)methoxy]phenyl]methyl]-1-(5-fluorobenzofuran-2-yl)sulfonyl-pyrrolidine-2-carboxamide], which IC50 is on record?
Answer: 1 nM

Question: `CN(C)c1cccc(COc2cccc(CNC(=O)[C@@H]3CCCN3S(=O)(=O)c3cc4cc(F)ccc4o3)c2)c1` [Example 12, (2S)-N-[[3-[[3-(dimethylamino)phenyl]methoxy]phenyl]-methyl]-1-(5-fluorobenzofuran-2-yl)sulfonyl-pyrrolidine-2-carboxamide] was tested. Which IC50 did it give?
Answer: 8.1 nM

Question: `O=C(NCc1cccc(OCc2ccncc2)c1)[C@@H]1CCCN1S(=O)(=O)c1cc2cc(F)ccc2o1` [Example 13, (2S)-1-(5-fluorobenzofuran-2-yl)sulfonyl-N-[[3-(4-pyridylmethoxy)phenyl]methyl]pyrrolidine-2-carboxamide] was tested. Which IC50 did it give?
Answer: 19 nM

Question: With `O=C(NCc1cccc(OCc2cccnc2)c1)[C@@H]1CCCN1S(=O)(=O)c1cc2cc(F)ccc2o1` [Example 14, (2S)-1-(5-fluorobenzofuran-2-yl)sulfonyl-N-[[3-(3-pyridylmethoxy)phenyl]-methyl]pyrrolidine-2-carboxamide] as the molecule, how does the IC50 read?
Answer: 20 nM

Question: For `O=C(NCc1cccc(OCc2ccccn2)c1)[C@@H]1CCCN1S(=O)(=O)c1cc2cc(F)ccc2o1` [Example 15, (2S)-1-(5-fluorobenzofuran-2-yl)sulfonyl-N-[[3-(2-pyridylmethoxy)phenyl]-methyl]pyrrolidine-2-carboxamide], which IC50 is on record?
Answer: 100 nM

Question: With `O=C(NCc1cccc(OCc2ccnc(C(F)(F)F)c2)c1)[C@@H]1CCCN1S(=O)(=O)c1cc2cc(F)ccc2o1` [Example 16, (2S)-1-(5-fluorobenzofuran-2-yl)sulfonyl-N-[[3-[[2-(trifluoromethyl)-4-pyridyl]methoxy]phenyl]-methyl]pyrrolidine-2-carboxamide] as the molecule, how does the IC50 read?
Answer: 2.8 nM

Question: How did the IC50 turn out when `CN(C)c1cc(COc2cccc(CNC(=O)[C@@H]3CCCN3S(=O)(=O)c3cc4cc(F)ccc4o3)c2)ccn1` [Example 17, (2S)-N-[[3-[[2-(dimethylamino)-4-pyridyl]methoxy]phenyl]-methyl]-1-(5-fluorobenzofuran-2-yl)sulfonyl-pyrrolidine-2-carboxamide] was run?
Answer: 15 nM

Question: With `Cc1ccc(COc2cccc(CNC(=O)[C@@H]3CCCN3S(=O)(=O)c3cc4cc(F)ccc4o3)c2)cn1` [Example 19, (2S)-1-(5-fluorobenzofuran-2-yl)sulfonyl-N-[[3-[(6-methyl-3-pyridyl)methoxy]phenyl]-methyl]pyrrolidine-2-carboxamide] as the molecule, how does the IC50 read?
Answer: 14 nM

Question: `O=C(NCc1cccc(OCc2ccc(C(F)(F)F)nc2)c1)[C@@H]1CCCN1S(=O)(=O)c1cc2cc(F)ccc2o1` [Example 20, (2S)-1-(5-fluorobenzofuran-2-yl)sulfonyl-N-[[3-[[6-(trifluoromethyl)-3-pyridyl]methoxy]phenyl]-methyl]pyrrolidine-2-carboxamide] was tested. Which IC50 did it give?
Answer: 1.4 nM

Question: `CN(C)c1ccc(COc2cccc(CNC(=O)[C@@H]3CCCN3S(=O)(=O)c3cc4cc(F)ccc4o3)c2)cn1` [Example 21, (2S)-N-[[3-[[6-(dimethylamino)-3-pyridyl]methoxy]phenyl]-methyl]-1-(5-fluorobenzofuran-2-yl)sulfonyl-pyrrolidine-2-carboxamide] was tested. Which IC50 did it give?
Answer: 34 nM

Question: With `CN(C)c1cncc(COc2cccc(CNC(=O)[C@@H]3CCCN3S(=O)(=O)c3cc4cc(F)ccc4o3)c2)c1` [Example 23, (2S)-N-[[3-[[5-(dimethylamino)-3-pyridyl]methoxy]phenyl]-methyl]-1-(5-fluorobenzofuran-2-yl)sulfonyl-pyrrolidine-2-carboxamide] as the molecule, how does the IC50 read?
Answer: 110 nM

Question: With `CN1CCOc2cc(COc3cccc(CNC(=O)[C@@H]4CCCN4S(=O)(=O)c4cc5cc(F)ccc5o4)c3)cnc21` [Example 24, (2S)-1-(5-fluorobenzofuran-2-yl)sulfonyl-N-[[3-[(4-methyl-2,3-diphydropyrido[3,2-b][1,4]oxazin-7-yl)methoxy]-phenyl]methyl]pyrrolidine-2-carboxamide] as the molecule, how does the IC50 read?
Answer: 410 nM

Question: `O=C(NCc1cccc(OCc2cccc(C(F)(F)F)n2)c1)[C@@H]1CCCN1S(=O)(=O)c1cc2cc(F)ccc2o1` [Example 25, (2S)-1-(5-fluorobenzofuran-2-yl)sulfonyl-N-[[3-[[6-(trifluoromethyl)-2-pyridyl]methoxy]phenyl]-methyl]pyrrolidine-2-carboxamide] was tested. Which IC50 did it give?
Answer: 11 nM

Question: How did the IC50 turn out when `CN(C)c1cccc(COc2cccc(CNC(=O)[C@@H]3CCCN3S(=O)(=O)c3cc4cc(F)ccc4o3)c2)n1` [Example 26, (2S)-N-[[3-[[6-(dimethylamino)-2-pyridyl]methoxy]phenyl]-methyl]-1-(5-fluorobenzofuran-2-yl)sulfonyl-pyrrolidine-2-carboxamide] was run?
Answer: 23 nM
